According to US20110136801A1, “Novel Compounds” (Dainippon Sumitomo Pharma Co. Ltd., priority 2009, published 2011):

Biological target: T1, human TLR7 (Homo sapiens, UniProt Q9NYK1)
T1 construct: expressed in transfected cells; host or cells: HEK293 cell line stably expressing the pNiFty2-SEAP reporter plasmid; TLR7 in pUNO vector, blasticidin selection
T1 sequence (Q9NYK1 27-1049): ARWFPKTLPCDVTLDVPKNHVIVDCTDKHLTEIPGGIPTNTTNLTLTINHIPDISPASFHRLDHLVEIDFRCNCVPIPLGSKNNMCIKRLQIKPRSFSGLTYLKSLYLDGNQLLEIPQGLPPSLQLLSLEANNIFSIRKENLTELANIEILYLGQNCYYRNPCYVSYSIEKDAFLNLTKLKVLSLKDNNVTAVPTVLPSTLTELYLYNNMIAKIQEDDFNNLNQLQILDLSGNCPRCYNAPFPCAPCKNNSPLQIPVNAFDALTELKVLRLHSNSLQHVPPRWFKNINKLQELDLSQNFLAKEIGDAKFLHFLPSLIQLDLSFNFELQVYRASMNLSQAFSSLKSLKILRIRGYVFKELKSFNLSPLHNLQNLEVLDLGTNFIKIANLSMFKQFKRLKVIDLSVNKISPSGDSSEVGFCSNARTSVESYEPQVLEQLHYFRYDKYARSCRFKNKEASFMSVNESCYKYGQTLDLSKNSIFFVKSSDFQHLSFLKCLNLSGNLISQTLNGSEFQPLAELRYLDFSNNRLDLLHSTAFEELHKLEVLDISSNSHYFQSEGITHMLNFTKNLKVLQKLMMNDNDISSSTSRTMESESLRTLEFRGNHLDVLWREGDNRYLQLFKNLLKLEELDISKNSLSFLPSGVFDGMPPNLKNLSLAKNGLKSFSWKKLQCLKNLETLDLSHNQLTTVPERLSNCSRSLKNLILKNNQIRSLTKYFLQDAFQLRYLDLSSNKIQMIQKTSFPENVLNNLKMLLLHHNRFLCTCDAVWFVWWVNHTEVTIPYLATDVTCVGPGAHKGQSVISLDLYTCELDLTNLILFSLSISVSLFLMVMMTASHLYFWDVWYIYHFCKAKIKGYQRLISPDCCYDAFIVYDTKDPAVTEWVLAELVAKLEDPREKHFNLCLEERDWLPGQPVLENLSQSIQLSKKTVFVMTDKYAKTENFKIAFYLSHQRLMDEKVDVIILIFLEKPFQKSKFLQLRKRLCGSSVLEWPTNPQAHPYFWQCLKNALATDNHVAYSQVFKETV
Assay: Human TLR7 Assay (SEAP reporter in HEK293 cells);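 note: Read-out is secreted alkaline phosphatase made under an NFkB/ELAM-1 composite promoter, reporting TLR7-triggered NFkB activation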
Type: cell-based
Details: HEK293 cell line expressing human TLR7 and pNiFty2-SEAP reporter, overnight incubation at 37° C., 0.1% DMSO; read-out: hTLR7 EC50
Excerpt: The most common variant sequence of human TLR7 (represented by the EMBL sequence AF240467) was cloned into the mammalian cell expression vector pUNO and transfected into a HEK293 cell line already stably expressing the pNiFty2-SEAP reporter plasmid; integration of the reporter gene was maintained by selection with the antibiotic zeocin. Transfectants with stable TLR7 expression were selected using the antibiotic blasticidin. In this reporter cell-line, expression of secreted alkaline phosphatase (SEAP) is controlled by an NFkB/ELAM-1 composite promoter comprising five NFkB sites combined with the proximal ELAM-1 promoter. TLR signaling leads to the translocation of NFkB and activation of the promoter results in expression of the SEAP gene. TLR7-specific activation was assessed by determining the level of SEAP produced following overnight incubation of the cells at 37° C. with the standard compound in the presence of 0.1% (v/v) dimethylsulfoxide (DMSO). Concentration dependent induction of SEAP production by compounds was expressed as the concentration of compound which produced half of the maximal level of SEAP induction for that compound (EC50).

**Q.** Which EC50 does the source give for `COCCc1nc2c(N)nc3ccccc3c2n1CCCN(Cc1cccc(OC(C)(C)C(=O)OC)c1)C(=O)CN(C)C` [Example 149, Methyl 2-{3-[(N-{3-[4-amino-2-(2-methoxyethyl)-1H-imidazo[4,5-c]quinolin-1-yl]propyl}-2-{dimethylamino}acetamido)methyl]phenoxy}-2-methylpropanoate] here?
**A.** 181 nM

**Q.** With `CCOCc1nc2c(N)nc3ccccc3c2n1CCCN(Cc1cccc(OC(C)(C)C(=O)OCC)c1)C(=O)CN(CC)CC` [Example 162, Ethyl 2-{3-[(N-{3-[4-amino-2-(ethoxymethyl)-1H-imidazo[4,5-c]quinolin-1-yl]propyl}-2-{diethylamino}acetamido)methyl]phenoxy}-2-methylpropanoate] as the compound, how does the EC50 read?
**A.** 96.4 nM

**Q.** How did the EC50 turn out when `CCOC(=O)C(C)Oc1cccc(CN(CCCn2c(CCOC)nc3c(N)nc4ccccc4c32)C(=O)CN(CC)CC)c1` (centres unmarked) [Example 52, Ethyl 2-{3-[(N-{3-[4-amino-2-(2-methoxyethyl)-1H-imidazo[4,5-c]quinolin-1-yl]propyl}-2-{diethylamino}acetamido)methyl]phenoxy}propanoate] was run?
**A.** 24.2 nM

**Q.** Which EC50 does the source give for `CCCOC(=O)COc1cccc(CN(CCCn2c(CCOC)nc3c(N)nc4ccccc4c32)C(=O)CN(CC)CC)c1` [Example 26, Propyl 2-{3-[(N-{3-[4-amino-2-(2-methoxyethyl)-1H-imidazo[4,5-c]quinolin-1-yl]propyl}-2-(diethylamino)acetamido)methyl]phenoxy}acetate] here?
**A.** 54.6 nM

**Q.** For `CCN(CC)CC(=O)N(CCCn1c(CCOC)nc2c(N)nc3ccccc3c21)Cc1cccc(OCC(=O)OC2CCC2)c1` [Example 81, Cyclobutyl 2-{3-[(N-{3-[4-amino-2-(2-methoxyethyl)-1H-imidazo[4,5-c]quinolin-1-yl]propyl}-2-{diethylamino}acetamido)methyl]phenoxy}acetate], which EC50 is on record?
**A.** 56.1 nM

**Q.** Which EC50 does the source give for `COCCc1nc2c(N)nc3ccccc3c2n1CCCN(Cc1cccc(OCC(=O)OC(C)C)c1)C(=O)CN(C)C` [Example 113, Isopropyl 2-{3-[(N-{3-[4-amino-2-(2-methoxyethyl)-1H-imidazo[4,5-c]quinolin-1-yl]propyl}-2-{dimethylamino}acetamido)methyl]phenoxy}acetate] here?
**A.** 83.4 nM

**Q.** For `CCOCc1nc2c(N)nc3ccccc3c2n1CCCN(Cc1cccc(OC(C)(C)C(=O)OC)c1)C(=O)CN1CCCC1` [Example 171, Methyl 2-{3-[(N-{3-[4-amino-2-(ethoxymethyl)-1H-imidazo[4,5-c]quinolin-1-yl]propyl}-2-{pyrrolidin-1-yl}acetamido)methyl]phenoxy}-2-methylpropanoate], which EC50 is on record?
**A.** 560 nM

**Q.** For `CCOC(=O)COc1cccc(CN(CCCCn2c(CCOC)nc3c(N)nc4ccccc4c32)C(=O)NCCN2CCCCC2)c1` [Example 126, Ethyl 2-{3-[(1-{4-[4-amino-2-(2-methoxyethyl)-1H-imidazo[4,5-c]quinolin-1-yl]butyl}-3-{2-(piperidin-1-yl)ethyl}ureido)methyl]phenoxy}acetate], which EC50 is on record?
**A.** 47 nM

**Q.** For `CCCCc1nc2c(N)nc3ccccc3c2n1CCCN(Cc1cccc(OCC(=O)OC)c1)C(=O)CN1CCCC1` [Example 13, Methyl (3-{[[3-(4-amino-2-butyl-1H-imidazo[4,5-c]quinolin-1-yl)propyl](pyrrolidin-1-ylacetyl)amino]methyl}phenoxy)acetate], which EC50 is on record?
**A.** 136 nM

**Q.** Which EC50 does the source give for `CCOCc1nc2c(N)nc3ccccc3c2n1CCCN(Cc1cccc(OCC(=O)OC(C)C)c1F)C(=O)CN(CC)CC` [Example 166, Isopropyl 2-{3-[(N-{3-[4-amino-2-(ethoxymethyl)-1H-imidazo[4,5-c]quinolin-1-yl]propyl}-2-{diethylamino}acetamido)methyl]-2-fluorophenoxy}acetate] here?
**A.** 475 nM

**Q.** `COCCc1nc2c(N)nc3ccccc3c2n1CCCN(Cc1cccc(OCC(=O)OC(C)C)c1)C(=O)CN(C)CCOC` [Example 115, Isopropyl 2-{3-[(N-{3-[4-amino-2-(2-methoxyethyl)-1H-imidazo[4,5-c]quinolin-1-yl]propyl}-2-{(2-methoxyethyl)(methyl)amino}acetamido)methyl]phenoxy}acetate] was tested. Which EC50 did it give?
**A.** 173 nM

**Q.** `CCN(CC)CC(=O)N(CCn1c(CCOC)nc2c(N)nc3ccccc3c21)Cc1cccc(OCC(=O)OC)c1` [Example 102, Methyl 2-{3-[(N-{2-[4-amino-2-(2-methoxyethyl)-1H-imidazo[4,5-c]quinolin-1-yl]ethyl}-2-{diethylamino}acetamido)methyl]phenoxy}acetate] was tested. Which EC50 did it give?
**A.** > 10000 nM

**Q.** How did the EC50 turn out when `COCCc1nc2c(N)nc3ccccc3c2n1CCCN(Cc1cccc(OCC(=O)OC(C)C)c1F)C(=O)CN(C)C` [Example 96, Isopropyl 2-{3-[(N-{3-[4-amino-2-(2-methoxyethyl)-1H-imidazo[4,5-c]quinolin-1-yl]propyl}-2-{dimethylamino}acetamido)methyl]-2-fluorophenoxy}acetate] was run?
**A.** 304 nM

**Q.** `COCCc1nc2c(N)nc3ccccc3c2n1CCCN(Cc1ccc(OC)c(OCC(=O)OC(C)C)c1)C(=O)CN(C)C` [Example 75, Isopropyl 2-{5-[(N-{3-[4-amino-2-(2-methoxyethyl)-1H-imidazo[4,5-c]quinolin-1-yl]propyl}-2-{dimethylamino}acetamido)methyl]-2-methoxyphenoxy}acetate] was tested. Which EC50 did it give?
**A.** 405 nM

**Q.** With `CCOC(=O)COc1cc(CN(CCCCn2c(CCOC)nc3c(N)nc4ccccc4c32)C(=O)NCCN2CCCCC2)ccc1F` [Example 140, Ethyl 2-{5-[(1-{4-[4-amino-2-(2-methoxyethyl)-1H-imidazo[4,5-c]quinolin-1-yl]butyl}-3-{2-(piperidin-1-yl)ethyl}ureido)methyl]-2-fluorophenoxy}acetate] as the compound, how does the EC50 read?
**A.** 79.1 nM

**Q.** How did the EC50 turn out when `CCN(CC)CC(=O)N(CCCCn1c(CCOC)nc2c(N)nc3ccccc3c21)Cc1cccc(OCC(=O)OC(C)(C)C)c1` [Example 48, tert-Butyl 2-{3-[(N-{4-[4-amino-2-(2-methoxyethyl)-1H-imidazo[4,5-c]quinolin-1-yl]butyl}-2-{diethylamino}acetamido)methyl]phenoxy}acetate] was run?
**A.** 24.7 nM

**Q.** How did the EC50 turn out when `CCC(Oc1cccc(CN(CCCn2c(CCOC)nc3c(N)nc4ccccc4c32)C(=O)CN(CC)CC)c1)C(=O)OC` (centres unmarked) [Example 70, Methyl 2-{3-[(N-{3-[4-amino-2-(2-methoxyethyl)-1H-imidazo[4,5-c]quinolin-1-yl]propyl}-2-{diethylamino}acetamido)methyl]phenoxy}butanoate] was run?
**A.** 25.9 nM

**Q.** With `CCOC(=O)C(C)(C)Oc1cccc(CN(CCCCn2c(CCOC)nc3c(N)nc4ccccc4c32)CCCN2CCOCC2)c1` [Example 136, Ethyl 2-{3-[({4-[4-amino-2-(2-methoxyethyl)-1H-imidazo[4,5-c]quinolin-1-yl]butyl}{3-morpholinopropyl}amino)methyl]phenoxy}-2-methylpropanoate] as the compound, how does the EC50 read?
**A.** 111 nM

**Q.** `CCCCOC(=O)COc1cccc(CN(CCCn2c(CCOC)nc3c(N)nc4ccccc4c32)C(=O)CN(CC)CC)c1` [Example 83, Butyl 2-{3-[(N-{3-[4-amino-2-(2-methoxyethyl)-1H-imidazo[4,5-c]quinolin-1-yl]propyl}-2-{diethylamino}acetamido)methyl]phenoxy}acetate] was tested. Which EC50 did it give?
**A.** 61.3 nM

**Q.** With `CCN(CC)CC(=O)N(CCCn1c(CCOC)nc2c(N)nc3ccccc3c21)Cc1ccc(OCC(=O)OC)cc1` [Example 36, Methyl 2-{4-[(N-{3-[4-amino-2-(2-methoxyethyl)-1H-imidazo[4,5-c]quinolin-1-yl]propyl}-2-(diethylamino)acetamido)methyl]phenoxy}acetate] as the compound, how does the EC50 read?
**A.** 84.5 nM

**Q.** For `COCCc1nc2c(N)nc3ccccc3c2n1CCCNC(=O)N(CCCN(C)C)Cc1ccc(OCC(=O)OC)cc1` [Example 22, Methyl [4-({[({3-[4-amino-2-(2-methoxyethyl)-1H-imidazo[4,5-c]quinolin-1-yl]propyl}amino)carbonyl][3-(dimethylamino)propyl]amino}methyl)phenoxy]acetate], which EC50 is on record?
**A.** 188 nM

**Q.** For `COCCc1nc2c(N)nc3ccccc3c2n1CCCCNC(=O)N(CCN1CCCCC1)Cc1ccc(F)c(OCC(=O)OC)c1` [Example 144, Methyl 2-{5-[(3-{4-[4-amino-2-(2-methoxyethyl)-1H-imidazo[4,5-c]quinolin-1-yl]butyl}-1-{2-(piperidin-1-yl)ethyl}ureido)methyl]-2-fluorophenoxy}acetate], which EC50 is on record?
**A.** 79.2 nM

**Q.** For `CCCCc1nc2c(N)nc3ccccc3c2n1CCCN(CCCN1CCOCC1)Cc1cccc(OCC(=O)OC)c1` [Example 21, Methyl (3-{[[3-(4-amino-2-butyl-1H-imidazo[4,5-c]quinolin-1-yl)propyl](3-morpholinopropyl)amino]methyl}phenoxy)acetate], which EC50 is on record?
**A.** 787 nM
